Experiments:
Type in all cases: biochemical
Conditions in all cases: 1-10 μM bletinib or 0.1-3 μM PP2; 125 μM ATP; concentration-dependent
[1] = biological target: Fgr (Homo sapiens, UniProt P09769); experiment: Cell-free ADP-Glo kinase assay, Fgr
Procedure: (§1) The kinase activity of SFKs was assessed using an ADP-Glo kinase assay kit (Promega, Fitchburg, USA) according to manufacturer instructions. […] The ADP-Glo reagent was used to end the kinase reaction and remove the remnant ATP; next, the kinase, which converted ADP to ATP, detection reagent was added and incubated for 30 min. Luciferin/luciferase luminescence was determined on an Infinite 200 Pro (Tecan, Switzerland).

[2] = biological target: Src (Homo sapiens, UniProt P12931); experiment: Cell-free ADP-Glo kinase assay, Src
Src, sequence (P12931 whole entry): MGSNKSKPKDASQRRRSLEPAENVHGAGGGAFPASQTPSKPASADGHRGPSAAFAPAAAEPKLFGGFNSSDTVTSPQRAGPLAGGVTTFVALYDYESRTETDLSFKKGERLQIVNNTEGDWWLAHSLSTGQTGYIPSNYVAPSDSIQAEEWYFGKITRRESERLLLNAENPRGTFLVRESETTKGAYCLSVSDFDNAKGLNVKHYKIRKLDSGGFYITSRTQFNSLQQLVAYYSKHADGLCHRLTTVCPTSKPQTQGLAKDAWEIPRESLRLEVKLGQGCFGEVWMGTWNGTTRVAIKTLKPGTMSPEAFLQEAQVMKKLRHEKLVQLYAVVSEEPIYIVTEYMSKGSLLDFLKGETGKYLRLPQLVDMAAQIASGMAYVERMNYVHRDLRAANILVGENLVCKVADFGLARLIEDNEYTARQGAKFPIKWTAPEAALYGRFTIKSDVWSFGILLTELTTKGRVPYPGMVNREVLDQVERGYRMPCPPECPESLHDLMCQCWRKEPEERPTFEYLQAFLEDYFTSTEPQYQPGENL
Procedure: as §1

[3] = biological target: Lyn (Homo sapiens, UniProt P07948); experiment: Cell-free ADP-Glo kinase assay, Lyn
Lyn, sequence (P07948 whole entry): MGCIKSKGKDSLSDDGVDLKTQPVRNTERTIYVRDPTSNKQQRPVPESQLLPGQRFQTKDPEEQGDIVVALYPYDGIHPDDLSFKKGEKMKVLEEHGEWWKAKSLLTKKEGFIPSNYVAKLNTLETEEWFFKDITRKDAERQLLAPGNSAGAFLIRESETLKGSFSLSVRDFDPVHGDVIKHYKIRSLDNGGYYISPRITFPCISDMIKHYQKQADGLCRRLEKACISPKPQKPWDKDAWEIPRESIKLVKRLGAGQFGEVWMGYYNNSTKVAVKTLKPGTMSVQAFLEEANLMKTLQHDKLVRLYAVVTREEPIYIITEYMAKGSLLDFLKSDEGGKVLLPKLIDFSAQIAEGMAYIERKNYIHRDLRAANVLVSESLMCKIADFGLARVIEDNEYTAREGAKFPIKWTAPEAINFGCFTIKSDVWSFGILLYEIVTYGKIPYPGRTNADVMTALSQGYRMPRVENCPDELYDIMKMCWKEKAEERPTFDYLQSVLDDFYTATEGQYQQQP
Procedure: as §1

Fgr, sequence (P09769 whole entry): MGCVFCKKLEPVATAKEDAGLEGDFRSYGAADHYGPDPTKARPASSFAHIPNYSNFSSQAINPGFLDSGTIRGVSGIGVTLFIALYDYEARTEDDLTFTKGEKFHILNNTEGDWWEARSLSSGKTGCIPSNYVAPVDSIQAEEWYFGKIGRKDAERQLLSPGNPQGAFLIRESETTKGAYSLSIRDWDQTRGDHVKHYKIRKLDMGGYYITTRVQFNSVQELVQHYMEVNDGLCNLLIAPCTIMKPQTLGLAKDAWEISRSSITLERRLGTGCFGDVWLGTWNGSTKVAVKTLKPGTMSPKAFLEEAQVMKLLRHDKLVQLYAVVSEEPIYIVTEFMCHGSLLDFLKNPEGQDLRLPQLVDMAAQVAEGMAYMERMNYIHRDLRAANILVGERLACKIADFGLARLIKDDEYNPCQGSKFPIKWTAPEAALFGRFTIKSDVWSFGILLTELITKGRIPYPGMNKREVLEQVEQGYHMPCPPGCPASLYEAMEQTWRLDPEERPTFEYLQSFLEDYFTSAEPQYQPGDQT

CC(C)(C)n1nc(-c2ccc(Cl)cc2)c2c(N)ncnc21 [PP2, reference compound]
inhibited: kinase activity of Fgr [1] | kinase activity of Src [2] | kinase activity of Lyn [3]

From US20220339122A1, “METHODS FOR THE TREATMENT OF DISEASES ASSOCIATED WITH DYSREGULATED ACTIVATION AND RECRUITMENT OF NEUTROPHILS” (Chang Gung University, priority 2021, published 2022)
